Experimental data: patent publication US8410112B2, “Compounds useful as inhibitors of ATR kinase” (Vertex Pharmaceuticals Incorporated, priority 2008, dated 2013)

These molecules were tested against T1, full-length ATR (Homo sapiens, UniProt Q13535) (assay: ATR Inhibition Assay (radioactive-phosphate incorporation)). Settings: Ki(app); 5 nM full-length ATR, 10 μM ATP, 800 μM target peptide, 25° C.
T1 construct: in the presence of 5 nM full-length ATR
Format: biochemical
Protocol: Test compounds were screened for their ability to inhibit ATR kinase using a radioactive-phosphate incorporation assay. Assays were carried out in a mixture of 50 mM
Tris/HCl (pH 7.5), 10 mM MgCl2 and 1 mM DTT. Final substrate concentrations were 10 μM [γ-33P]ATP (3 mCi 33 P ATP/mmol ATP, Perkin Elmer) and 800 μM target peptide ([…]). Assays were carried out at 25° C. in the presence of 5 nM full-length ATR. An assay stock buffer solution was prepared containing all of the reagents listed above, with the exception of ATP and the test compound of interest. […] The plate was pre-incubated for 10 minutes at 25° C. and the reaction initiated by addition of 15 μL [γ-33P]ATP (final concentration 10 μM).
The reaction was stopped after […] by the addition of 30 μL 0.1M phosphoric acid containing 2 mM ATP. A multiscreen phosphocellulose filter 96-well plate (Millipore, Cat no. MAPHN0B50) was pretreated with 100 μL 0.2M phosphoric acid prior to the addition of 45 μL of the stopped assay mixture. The plate was washed with 5×200 μL 0.2M phosphoric acid.
After removing mean background values for all of the data points, Ki(app) data were calculated from non-linear regression analysis of the initial rate data using the Prism software package (GraphPad Prism version 3.0cx for Macintosh, GraphPad Software, San Diego Calif., USA).

T1 sequence (Q13535 whole entry): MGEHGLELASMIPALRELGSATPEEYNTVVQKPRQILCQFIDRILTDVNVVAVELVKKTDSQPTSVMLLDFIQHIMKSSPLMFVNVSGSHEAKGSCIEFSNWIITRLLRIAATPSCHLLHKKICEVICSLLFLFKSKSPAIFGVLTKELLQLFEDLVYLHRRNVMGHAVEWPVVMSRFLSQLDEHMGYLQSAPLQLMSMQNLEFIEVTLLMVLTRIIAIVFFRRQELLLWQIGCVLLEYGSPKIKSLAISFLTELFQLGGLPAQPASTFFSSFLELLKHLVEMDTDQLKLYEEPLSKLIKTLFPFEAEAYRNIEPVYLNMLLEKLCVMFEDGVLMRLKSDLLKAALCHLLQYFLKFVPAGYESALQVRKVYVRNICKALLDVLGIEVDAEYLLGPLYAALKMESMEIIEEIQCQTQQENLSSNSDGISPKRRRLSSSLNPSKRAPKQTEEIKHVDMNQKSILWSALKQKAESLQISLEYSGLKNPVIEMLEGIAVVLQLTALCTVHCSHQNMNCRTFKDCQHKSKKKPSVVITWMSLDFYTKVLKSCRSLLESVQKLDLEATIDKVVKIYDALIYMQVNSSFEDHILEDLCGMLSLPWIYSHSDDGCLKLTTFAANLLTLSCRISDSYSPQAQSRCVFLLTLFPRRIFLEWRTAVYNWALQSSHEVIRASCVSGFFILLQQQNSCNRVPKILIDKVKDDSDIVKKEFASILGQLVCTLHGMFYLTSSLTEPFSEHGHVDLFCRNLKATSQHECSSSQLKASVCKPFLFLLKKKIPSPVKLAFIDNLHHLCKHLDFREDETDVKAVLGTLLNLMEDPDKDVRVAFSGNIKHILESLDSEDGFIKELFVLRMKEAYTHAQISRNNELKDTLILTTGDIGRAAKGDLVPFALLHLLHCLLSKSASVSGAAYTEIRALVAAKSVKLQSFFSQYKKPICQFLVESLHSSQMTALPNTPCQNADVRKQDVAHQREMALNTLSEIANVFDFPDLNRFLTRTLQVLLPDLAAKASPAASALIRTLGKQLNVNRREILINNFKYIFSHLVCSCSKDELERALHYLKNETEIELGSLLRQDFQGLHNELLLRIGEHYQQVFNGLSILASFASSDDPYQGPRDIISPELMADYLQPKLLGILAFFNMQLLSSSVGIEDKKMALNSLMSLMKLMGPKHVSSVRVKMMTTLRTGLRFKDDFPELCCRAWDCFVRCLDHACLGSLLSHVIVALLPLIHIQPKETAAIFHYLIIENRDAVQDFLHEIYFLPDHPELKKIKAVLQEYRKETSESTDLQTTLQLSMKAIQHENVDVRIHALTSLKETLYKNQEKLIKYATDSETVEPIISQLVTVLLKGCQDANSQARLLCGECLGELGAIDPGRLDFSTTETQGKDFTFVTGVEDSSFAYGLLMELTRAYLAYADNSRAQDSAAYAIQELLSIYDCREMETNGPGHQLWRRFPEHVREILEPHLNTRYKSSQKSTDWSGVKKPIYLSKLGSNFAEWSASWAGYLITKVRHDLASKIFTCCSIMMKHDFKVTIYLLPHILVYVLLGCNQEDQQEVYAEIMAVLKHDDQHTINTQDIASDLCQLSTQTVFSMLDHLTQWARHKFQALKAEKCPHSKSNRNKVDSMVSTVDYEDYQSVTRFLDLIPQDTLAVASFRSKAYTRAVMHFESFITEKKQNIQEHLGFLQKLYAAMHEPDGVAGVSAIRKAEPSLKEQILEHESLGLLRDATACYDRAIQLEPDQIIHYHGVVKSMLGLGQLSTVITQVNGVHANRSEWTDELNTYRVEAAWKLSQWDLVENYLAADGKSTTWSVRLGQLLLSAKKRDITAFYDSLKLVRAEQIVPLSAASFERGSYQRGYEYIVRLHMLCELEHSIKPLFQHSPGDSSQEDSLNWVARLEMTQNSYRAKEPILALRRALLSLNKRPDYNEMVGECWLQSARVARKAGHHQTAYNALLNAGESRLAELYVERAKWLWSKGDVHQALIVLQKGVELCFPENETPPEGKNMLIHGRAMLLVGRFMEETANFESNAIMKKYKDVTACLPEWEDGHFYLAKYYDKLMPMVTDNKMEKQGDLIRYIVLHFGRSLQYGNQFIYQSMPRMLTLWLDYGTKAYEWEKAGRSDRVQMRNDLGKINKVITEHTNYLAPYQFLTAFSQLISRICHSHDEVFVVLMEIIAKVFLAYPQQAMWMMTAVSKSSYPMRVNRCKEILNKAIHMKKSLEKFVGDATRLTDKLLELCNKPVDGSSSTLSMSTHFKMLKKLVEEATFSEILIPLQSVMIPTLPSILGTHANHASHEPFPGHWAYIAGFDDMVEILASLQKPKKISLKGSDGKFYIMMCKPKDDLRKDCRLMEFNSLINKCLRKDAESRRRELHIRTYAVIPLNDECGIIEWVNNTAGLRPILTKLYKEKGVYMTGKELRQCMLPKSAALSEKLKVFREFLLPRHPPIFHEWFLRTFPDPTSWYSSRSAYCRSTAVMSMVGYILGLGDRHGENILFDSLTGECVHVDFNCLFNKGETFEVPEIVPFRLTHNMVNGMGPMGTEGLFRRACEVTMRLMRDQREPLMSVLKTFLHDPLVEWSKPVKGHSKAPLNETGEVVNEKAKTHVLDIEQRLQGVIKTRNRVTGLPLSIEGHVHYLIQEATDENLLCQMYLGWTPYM

Q: For CCS(=O)(=O)N1CCN(c2cnc(N)c(C(=O)/C=C/c3ccccc3)n2)CC1 [Compound I-73, (E)-1-(3-amino-6-(4-(ethylsulfonyl)piperazin-1-yl)pyrazin-2-yl)-3-phenylprop-2-en-1-one], which Ki is on record?
A: 1000 to 10000 nM

Q: Which Ki does the source give for N#CCN1CC=C(c2cnc(N)c(-c3nc4ccccc4[nH]3)n2)CC1 [Compound I-76, 2-(4-(5-amino-6-(1H-benzo[d]imidazol-2-yl)pyrazin-2-yl)-5,6-dihydropyridin-1(2H)-yl)ethanenitrile] here?
A: 100 to 1000 nM

Q: Which Ki does the source give for Cc1cccc(C)c1C(=O)N1CCN(c2cnc(N)c(C(=O)Nc3ccccn3)n2)CC1 [Compound I-262, 3-amino-6-(4-(2,6-dimethylphenylcarbonyl)piperazin-1-yl)-N-(pyridin-2-yl)pyrazine-2-carboxamide] here?
A: 100 to 1000 nM

Q: With CCNC(=O)C1[C@H]2CN(c3cnc(N)c(-c4nnc(-c5ccc(CNC)cc5)o4)n3)C[C@@H]12 (stereo partly drawn) [Compound I-350, (1R,5S)-3-[5-Amino-6-[5-[4-(methylaminomethyl)phenyl]-1,3,4-oxadiazol-2-yl]pyrazin-2-yl]-N-ethyl-3-azabicyclo[3.1.0]hexane-6-carboxamide] as the molecule, how does the Ki read?
A: 100 to 1000 nM

Q: For CNCc1ccc(-c2nnc(-c3nc(N4CC[C@H](OC(=O)NCCOC)C4)cnc3N)o2)cc1 [Compound I-373, [(3S)-1-[5-Amino-6-[5-[4-(methylaminomethyl)phenyl]-1,3,4-oxadiazol-2-yl]pyrazin-2-yl]pyrrolidin-3-yl]N-(2-methoxyethyl)carbamate], which Ki is on record?
A: 100 to 1000 nM

Q: For Cc1ccc2nc(-c3nc(N4CCC(C(=O)c5ccccc5)CC4)cnc3N)[nH]c2c1 [Compound I-63, (1-(5-amino-6-(6-methyl-1H-benzo[d]imidazol-2-yl)pyrazin-2-yl)piperidin-4-yl)(phenyl)methanone], which Ki is on record?
A: 100 to 1000 nM

Q: With CN(C)C1CCN(C(=O)N2CC=C(c3cnc(N)c(-c4nc5ccccc5[nH]4)n3)CC2)CC1 [Compound I-173, (4-(5-amino-6-(1H-benzo[d]imidazol-2-yl)pyrazin-2-yl)-5,6-dihydropyridin-1(2H)-yl)(4-(dimethylamino)piperidin-1-yl)methanone] as the molecule, how does the Ki read?
A: 100 to 1000 nM

Q: For Nc1ncc(N2CCN(S(=O)(=O)c3ccsc3)CC2)nc1-c1nc2ccccc2[nH]1 [Compound I-80, 3-(1H-benzo[d]imidazol-2-yl)-5-(4-(thiophen-3-ylsulfonyl)piperazin-1-yl)pyrazin-2-amine], which Ki is on record?
A: 100 to 1000 nM

Q: How did the Ki turn out when Nc1ncc(N2CCN(S(=O)(=O)c3cccs3)CC2)nc1C(=O)Nc1ccccn1 [Compound I-116, 3-amino-N-(pyridin-2-yl)-6-(4-(thiophen-2-ylsulfonyl)piperazin-1-yl)pyrazine-2-carboxamide] was run?
A: 100 to 1000 nM

Q: For CCC(=O)N(C)C1CCN(c2cnc(N)c(-c3nnc(-c4ccc(CNC)cc4)o3)n2)CC1 [Compound I-365, N-(1-(5-Amino-6-(5-(4-((methylamino)methyl)phenyl)-1,3,4-oxadiazol-2-yl)pyrazin-2-yl)piperidin-4-yl)-N-methylpropionamide], which Ki is on record?
A: 100 to 1000 nM

Q: For CC(C)(C)C(=O)N1CCN(c2cnc(N)c(C(=O)Nc3ccccn3)n2)CC1 [Compound I-209, 3-amino-6-(4-(2,2-dimethylpropanoyl)piperazin-1-yl)-N-(pyridin-2-yl)pyrazine-2-carboxamide], which Ki is on record?
A: 1000 to 10000 nM

Q: How did the Ki turn out when Nc1ncc(N2CCN(CC(=O)N3CCOCC3)CC2)nc1-c1nnc(-c2ccccc2)o1 [Compound I-303, 2-[4-[5-amino-6-(5-phenyl-1,3,4-oxadiazol-2-yl)pyrazin-2-yl]piperazin-1-yl]-1-morpholino-ethanone] was run?
A: 100 to 1000 nM

Q: For CCS(=O)(=O)N1CC2CN(c3cnc(N)c(-c4nnc(-c5ccccc5)o4)n3)CC2C1 (centres unmarked) [Compound I-305, 5-(2-ethylsulfonyl-1,3,3a,4,6,6a-hexahydropyrrolo[3,4-c]pyrrol-5-yl)-3-(5-phenyl-1,3,4-oxadiazol-2-yl)pyrazin-2-amine], which Ki is on record?
A: 100 to 1000 nM

Q: With Cc1ccc2nc(-c3nc(N4CCC5(CC4)OCCO5)cnc3N)[nH]c2c1 [Compound I-33, 3-(6-methyl-1H-benzo[d]imidazol-2-yl)-5-(1,4-dioxa-8-azaspiro[4.5]decan-8-yl)pyrazin-2-amine] as the molecule, how does the Ki read?
A: 1000 to 10000 nM

Q: How did the Ki turn out when CCC(=O)NC1[C@H]2CN(c3cnc(N)c(-c4nnc(-c5ccc(CNC)cc5)o4)n3)C[C@@H]12 (stereo partly drawn) [Compound I-358, N-[(1S,5R)-3-[5-amino-6-[5-[4-(methylaminomethyl)phenyl]-1,3,4-oxadiazol-2-yl]pyrazin-2-yl]-3-azabicyclo[3.1.0]hexan-6-yl]propanamide] was run?
A: 100 to 1000 nM

Q: Cc1ccc2nc(-c3nc(N4CCC(C(F)(F)F)CC4)cnc3N)[nH]c2c1 [Compound I-31, 3-(6-methyl-1H-benzo[d]imidazol-2-yl)-5-(4-(trifluoromethyl)piperidin-1-yl)pyrazin-2-amine] was tested. Which Ki did it give?
A: 1000 to 10000 nM

Q: Nc1ncc(N2CCN(C(=O)N3CCCC3)CC2)nc1-c1nc2ccccc2[nH]1 [Compound I-267, (4-(5-amino-6-(1H-benzo[d]imidazol-2-yl)pyrazin-2-yl)piperazin-1-yl)(pyrrolidin-1-yl)methanone] was tested. Which Ki did it give?
A: 1000 to 10000 nM

Q: With CCNCc1ccc(-c2nnc(-c3nc(N4CCCC4)cnc3N)o2)cc1 [Compound I-343, 3-[5-[4-(Aethylaminomethyl)phenyl]-1,3,4-oxadiazol-2-yl]-5-pyrrolidin-1-yl-pyrazin-2-amine] as the molecule, how does the Ki read?
A: < 100 nM

Q: How did the Ki turn out when Cc1cccc(C)c1C(=O)N1CCN(c2cnc(N)c(-c3nnc(-c4ccccc4)o3)n2)CC1 [Compound I-258, (4-(5-amino-6-(5-phenyl-1,3,4-oxadiazol-2-yl)pyrazin-2-yl)piperazin-1-yl)(2,6-dimethylphenyl)methanone] was run?
A: 100 to 1000 nM

Q: How did the Ki turn out when COCCOCC(=O)N1CC=C(c2cnc(N)c(-c3nc4ccccc4[nH]3)n2)CC1 [Compound I-140, 1-(4-(5-amino-6-(1H-benzo[d]imidazol-2-yl)pyrazin-2-yl)-5,6-dihydropyridin-1(2H)-yl)-2-(2-methoxyethoxy)ethanone] was run?
A: 100 to 1000 nM

Q: Which Ki does the source give for Nc1ncc(N2CCC3(CCNC3)C2)nc1-c1nnc(-c2ccccc2)o1 (centres unmarked) [Compound I-340, 3-(5-Phenyl-1,3,4-oxadiazol-2-yl)-5-(2,7-diazaspiro[4.4]nonan-2-yl)pyrazin-2-amine] here?
A: 1000 to 10000 nM

Q: How did the Ki turn out when CCS(=O)(=O)N1CCN(c2cnc(N)c(-c3nnc(-c4ccccc4F)o3)n2)CC1 [Compound I-299, 5-(4-ethylsulfonylpiperazin-1-yl)-3-[5-(2-fluorophenyl)-1,3,4-oxadiazol-2-yl]pyrazin-2-amine] was run?
A: 100 to 1000 nM

Q: Which Ki does the source give for COC1CCN(c2cnc(N)c(-c3nc4ccc(C)cc4[nH]3)n2)CC1 [Compound I-12, 5-(4-methoxypiperidin-1-yl)-3-(6-methyl-1H-benzo[d]imidazol-2-yl)pyrazin-2-amine] here?
A: 1000 to 10000 nM

Q: How did the Ki turn out when Nc1ncc(C2=CCN(S(=O)(=O)C3CC3)CC2)nc1-c1nnc(-c2ccccc2)o1 [Compound I-122, 5-(1-(cyclopropylsulfonyl)-1,2,3,6-tetrahydropyridin-4-yl)-3-(5-phenyl-1,3,4-oxadiazol-2-yl)pyrazin-2-amine] was run?
A: < 100 nM

Q: Which Ki does the source give for Nc1ncc(C2=CCN(C(=O)c3cccnc3)CC2)nc1-c1nc2ccccc2[nH]1 [Compound I-191] here?
A: 100 to 1000 nM

Q: With CCC(=O)N1CCN(c2cnc(N)c(-c3nnc(-c4ccc(CNC)cc4)o3)n2)[C@H](C)C1 [Compound I-359, (R)-1-(4-(5-Amino-6-(5-(4-((methylamino)methyl)phenyl)-1,3,4-oxadiazol-2-yl)pyrazin-2-yl)-3-methylpiperazin-1-yl)propan-1-one] as the molecule, how does the Ki read?
A: 100 to 1000 nM

Q: How did the Ki turn out when Nc1ncc(C2=CCN(C(=O)OCc3ccccc3)CC2)nc1-c1nnc(-c2ccccc2)o1 [Compound I-257, benzyl 4-(5-amino-6-(5-phenyl-1,3,4-oxadiazol-2-yl)pyrazin-2-yl)-5,6-dihydropyridine-1(2H)-carboxylate] was run?
A: 100 to 1000 nM

Q: CN1CCC(C(=O)N2CC=C(c3cnc(N)c(-c4nc5ccccc5[nH]4)n3)CC2)CC1 [Compound I-78, (4-(5-amino-6-(1H-benzo[d]imidazol-2-yl)pyrazin-2-yl)-5,6-dihydropyridin-1(2H)-yl)(1-methylpiperidin-4-yl)methanone] was tested. Which Ki did it give?
A: 100 to 1000 nM

Q: For Nc1ncc(C2=CCN(C(=O)Cc3ccccc3)CC2)nc1-c1nc2ccccc2[nH]1 [Compound I-213, 1-(4-(5-amino-6-(1H-benzo[d]imidazol-2-yl)pyrazin-2-yl)-5,6-dihydropyridin-1(2H)-yl)-2-phenylethanone], which Ki is on record?
A: 100 to 1000 nM

Q: Which Ki does the source give for Nc1ncc(N2CCN(C(=O)N3CCOCC3)CC2)nc1C(=O)Nc1ccccn1 [Compound I-114, 3-amino-6-(4-(morpholine-4-carbonyl)piperazin-1-yl)-N-(pyridin-2-yl)pyrazine-2-carboxamide] here?
A: 1000 to 10000 nM

Q: With Nc1ncc(N2C[C@@H]3CCC(=O)[C@@H]3C2)nc1-c1nnc(-c2ccccc2)o1 [Compound I-319, (3aS,6aR)-2-(5-Amino-6-(5-phenyl-1,3,4-oxadiazol-2-yl)pyrazin-2-yl)hexahydrocyclopenta[c]pyrrol-4(5H)-one] as the molecule, how does the Ki read?
A: 100 to 1000 nM

Q: How did the Ki turn out when CCNC(=O)[C@H]1CCCN1c1cnc(N)c(-c2nnc(-c3ccc(CNC)cc3)o2)n1 [Compound I-357, (2R)-1-[5-Amino-6-[5-[4-(methylaminomethyl)phenyl]-1,3,4-oxadiazol-2-yl]pyrazin-2-yl]-N-ethyl-pyrrolidine-2-carboxamide] was run?
A: 100 to 1000 nM
